Legend:
Assay type in all cases: cell-based, human
CCRF-CEM = assay: Proliferation (3H-thymidine) of CCRF-CEM
From the text: (§1) CCRF-CEM, CEM/C1, CEM/C2, CEM-C7, Jurkat, Loucy, Molt-4, HSB-2, SUP-T1, Hut 78, HH, Hut 102, MO, and H9 T-leukemia and T-lymphoma cell lines were purchased from the American Type Culture Collection (Manassas, Va., USA). All of the cell lines were initially expanded and cryopreserved within one month of receipt. Cells were typically used for 6 months at which time a fresh vial of cryopreserved cells was used. Total T cells from healthy donors were isolated via negative selection followed by positive selection using a CD3+ selection kit (Invitrogen, Carlsbad, Calif.). T cells were isolated from patients with T-ALL bone marrow or peripheral blood samples containing more than 70% leukemia cells using a CD2+ isolation kit (STEMCELL Technologies, Vancouver, Canada). All tissues were collected under institutional IRB-approved protocols and all participants gave written informed assent/consent. For in vitro experiments, T-ALL cells were cultured in AIM-V medium supplemented with 20% human AB serum in the presence of recombinant human stem cell factor (50 ng/mL; Amgen, Thousand Oaks, Calif.), insulin (20 nM; Sigma-Aldrich, St Louis, Mo., USA) and IL-7 (50 ng/mL; R&D Systems, Minneapolis, Minn., USA). In other experiments, protein lysate was collected using the Full Moon Biosystems (Sunnyvale, Calif., USA) buffer prior to protein examination by western blot or protein array.
(§2) Cells were cultured in a 96-well plate (Corning Costar, Corning, N.Y., USA) with various concentrations of TLR ligands 1-9, starting at 10 μg/ml, in a final volume of 200 ul. TLR ligands were diluted 2-fold. Cell lines (25-40×10^3/well) were cultured for 54 hours, whereas fresh patient-derived T-ALL cells (200×10^3/well) were cultured for 30 hours prior to adding [^3H]-thymidine for 18 hours. After this time point, cells were harvested with a Packard Filter-Mate-96 cell harvester (Perkin Elmer, Waltham, Mass., USA) and counted on Packard Top Count-NXT (Perkin Elmer, Waltham, Mass., USA). Results were expressed as average counts per minute (cpm). In some experiments CCRF-CEM cells were pre-treated with TLR1-TLR2 ligand (Pam3CysK4; 2.5 ug/ml) for 48 hrs, washed, and then cultured in the presence of varying concentrations of FBS. Forty-eight hours later, proliferation (±SD) was determined by ^3H-thymidine incorporation. Alternatively, apoptosis was measured by flow cytometry after staining cells with Annexin-V (BD Pharmingen, San Diego, Calif., USA) and propidium iodide (Sigma). Cell number was counted under microscopy by staining cells with trypan blue.
The following TLR ligands were purchased from Invivogen (San Diego, Calif., USA): tripalmitoyl-S-(bis(palmitoyloxy)propyl)-Cys-Ser-(Lys)3-Lys (TLR1-2); Poly I:C (TLR3); ultrapure S. Minnesota Lipopolysaccharide (TLR4); S. typhimurium flagellin (TLR5); FSL-1 (TLR2/6); Imiquimod (TLR7); ssRNA40/Lyovec (TLR8); CpG-ODN 2006 (TLR9).

[1] = system: T-ALL cells from patients; assay: Proliferation (3H-thymidine) of patient T-ALL cells
From the text: as §1, with “In other experiments, protein lysate was collected using the Full Moon Biosystems (Sunnyvale, Calif., USA) buffer prior to protein examination by western blot or protein array.” left out
as §2, with “TLR ligands were diluted 2-fold. Cell lines (25-40×10^3/well) were cultured for 54 hours, whereas fresh patient-derived T-ALL cells (200×10^3/well) were cultured for 30 hours prior to adding [^3H]-thymidine for 18 hours.” left out, “In some experiments CCRF-CEM cells were pre-treated with TLR1-TLR2 ligand (Pam3CysK4; 2.5 ug/ml) for 48 hrs, washed, and then cultured in the presence of varying concentrations of FBS.” left out

A375 cells = assay: Milliplex cytokine/chemokine array
Protocol: FIG. 7. TLR and TLR signaling-related protein expression profiles on melanoma cell lines. (A) The expression levels of TLR1-TLR10 and various TLR-related proteins were examined by Western blot in samples from human melanoma cell lines. (B) The TLR1-TLR2 ligand Pam3CysK4 was added to A375 cells for 48 hrs. Cytokine and chemokine production by was determined using a Milliplex cytokine/chemokine array. (C) IRAK-1,-4 inhibitor or vehicle alone (DMSO) was added to melanoma cells for 48 hrs. The level of phosphorylated and non-phosphorylated p65 subunit of NF-KB was determined by Western blot. (D) Cytokine and chemokine levels in the supernatant A375 cell culture were examined using a Milliplex cytokine/chemokine array 48 hours after adding IRAK-1,-4 inhibitor or DMSO. ANOVA; **P<0.001, *P<0.05.
FIG. 19. Inhibiting IRAK-1/-4 abrogates the effects of TLR1-TLR2 agonist in melanoma cells. A375 cells were cultured in the presence or absence of TLR1-TLR2 ligand Pam3CysK4 (2.5 μg/ml) and in the presence of the IRAK-1/-4 inhibitor (10 μM) or vehicle control DMSO. Cytokine and chemokine production by was determined using a Milliplex cytokine/chemokine array 48 hrs. later.
A375 cells were cultured in the presence or absence of TLR1-TLR2 ligand Pam3CysK4 (2.5 μg/ml) and in the presence of the IRAK-1,-4 inhibitor (10 μM) or vehicle control DMSO. (FIG. 19). Therefore, activation of IRAK-1,-4 signaling on melanoma cells in vivo might contribute to cancer progression by inducing the expression of various chemokines and cytokines beneficial to cancer cell survival, division, and/or angiogenesis.

Molecule | reduction of proliferation of TLR1-TLR2-stimulated cells (CCRF-CEM; IRAK-1,-4 inhibitor 5 μM with TLR1-TLR2 agonist 1 μg/ml, 48 h, FIG. 3A) [%] | lowest concentration effective in reducing proliferation (CCRF-CEM; concentration-dependent, 48 h, FIG. 3B) [µM] | proliferation of patient T-ALL samples ([1]; samples with phosphorylated IRAK-1,-4, vs equal volume DMSO, FIG. 6D) | production of VEGF, CXCLI, MCP 1, PDGF-A and FGF-2 (A375 cells; 48 hrs, absence of TLR agonists, p<0.05, FIG. 7D) | cytokine/chemokine effects of TLR1-TLR2 agonist (A375 cells; IRAK-1,-4 inhibitor 10 μM with Pam3CysK4 2.5 μg/ml, FIG. 19) | Proliferative effects of TLR ligands (CCRF-CEM; 3H-thymidine uptake, 72 h) | concentration at which cells proliferated in response to the ligand (CCRF-CEM; FIG. 1A) [µg/mL] | effect on proliferation (in words) (CCRF-CEM; FIG. 1A) | TLR ligand concentration in parentheses below the symbol (CCRF-CEM; no unit in table (μg/ml)) | proliferation of patient T-ALL samples ([1]; five T-ALL patient samples, TLR1-TLR2 ligand, p<0.01, FIG. 6B) | concentrations giving increased proliferation ([1]; responding T-ALL patient samples, FIG. 6B) | changes in levels of MCP-I, IL-6 and fractalkine (A375 cells; 48 hrs, FIG. 7B) | levels of GM-CSF and IP-10 (A375 cells; 48 hrs, p<0.001, FIG. 7B) | levels of cytokines and chemokines including VEGF, CXCLI and IL-8 (A375 cells; 48 hrs, p<0.05, FIG. 7B)
O=C(Nc1nc2ccccc2n1CCN1CCOCC1)c1cccc([N+](=O)[O-])c1 [IRAK-1,-4 inhibitor] | 72 | 1.5 | Every sample exhibited reduced proliferation | significantly reduced | decreased the effects of TLR1-TLR2 agonist |  |  |  |  |  |  |  |  | 
tripalmitoyl-S-(bis(palmitoyloxy)propyl)-Cys-Ser-(Lys)3-Lys [Pam3Cysk4] |  |  |  |  |  | + (enhanced proliferation by 25% or greater) | 1.2 | proliferated | (1.2) | Two of five samples exhibited increased proliferation | above 1.25 μg/ml | not statistically significant | significantly increased | significantly augmented

— patent US9464326B2, “Total and phosphorylated IL-1 receptor-associated kinase-1 and IL-1 receptor-associated kinase-4 as a biomarker for cancer progression and chemotherapy resistance” (University of Maryland, Baltimore, priority 2012, dated 2016)
